{
  "source": "patent US20120022026A1",
  "about": "“METHOD OF TREATING CANCER” (ERASMUS UNIVERSITY MEDICAL CENTER ROTTERDAM, priority 2009, published 2012)",
  "key": {"PARP": {"system": "PARP", "settings": "cited from earlier work"}, "R1 cells": {"system": "R1 cells", "experiment": "Clonogenic assay, R1 cells with mild hyperthermia", "type": "cell-based, rat", "settings": "R1, 41° C.; for clonogenic survival: combination of 100 μM NU1025 and 100 nM 17-DMAG (FIG. 4B)", "method": "(§1) Embryonic stem (ES) cells were cultured on gelatin-coated dishes in a 1:1 mixture of Dulbecco's modified Eagle's medium (DMEM) and buffalo rat liver conditioned medium, supplemented with 10% FBS (Hyclone), 0.1 mM nonessential amino acids (Biowhittaker), […] β-mercaptoethanol (Sigma) and 500 U ml-1 leukemia inhibitory factor. Other cells were cultured in following media, supplemented with 10% (v/v) FCS and streptomycin/penicillin: 1:1 mixture of DMEM and Ham's F10 (HeLa), DMEM (human melanoma [BLM], osteosarcoma [U2OS], cervix carcinoma cells), L-15 (human squamous lung carcinoma [SW-1573]), Eagle's MEM (mouse osteosarcoma [MOS], rat rhabdomyosarcoma [R1]). Cells were maintained at 37° C. in an atmosphere containing 5% (HeLa, BLM), 10% (U2OS, cervix carcinoma cells), 2% (R1) or 0% (SW-1573) CO2. Patients with cervical cancer expressed written informed consent to provide fresh biopsies during an investigation under general anesthesia, and use the tumor specimens for this study. This study was approved by the medical ethical committee of the AMC (MEC #03/137). The biopsies were minced using scalpel, then incubated in Liberase Blendzyme enzyme cocktail (Roche) in DMEM for 60 min at 37° C. and plated on glass coverslips in fresh culture medium. All incubations at elevated temperature were performed in a heated waterbath or in a water-filled cuvette placed in an incubator set to required temperature, in an atmosphere containing appropriate CO2 concentration.\nThe following inhibitors were used at the indicated final concentrations: 17-DMAG, 100 nM (Sigma-Aldrich), NU1025, 100 μM (Sigma-Aldrich), MG-132, 10 μM (Calbiochem).\n(§2) In experiments involving NU1025 or irradiation, cells were trypsinized, counted and plated at appropriate concentrations into 60- or 35 mm dishes. […] Cells were then incubated for 7-14 days, fixed, stained and colonies exceeding 50 cells were counted. […] In experiments involving a combination of NU1025 and 17-DMAG, cells were first treated as indicated and subsequently trypsinized, counted and plated at various concentrations. […]"}, "[1]": {"system": "HR-mediated gene targeting", "experiment": "Gene targeting efficiency assay in ES cells", "type": "cell-based", "settings": "mouse ES cells, 41° C. plus 100 nM 17-DMAG vs heat without 17-DMAG or 17-DMAG at 37° C. (FIG. 1C)", "method": "as §1, with “All incubations at elevated temperature were performed in a heated waterbath or in a water-filled cuvette placed in an incubator set to required temperature, in an atmosphere containing appropriate CO2 concentration.” left out"}, "BRCA2 [2]": {"system": "BRCA2", "experiment": "Immunoblotting of BRCA2 in BLM cells under mild hyperthermia", "type": "cell-based, human", "settings": "hyperthermia plus 100 nM 17-DMAG vs heat without 17-DMAG or 17-DMAG at 37° C. (FIG. 4A)", "method": "as §1, with “The biopsies were minced using scalpel, then incubated in Liberase Blendzyme enzyme cocktail (Roche) in DMEM for 60 min at 37° C. and plated on glass coverslips in fresh culture medium. All incubations at elevated temperature were performed in a heated waterbath or in a water-filled cuvette placed in an incubator set to required temperature, in an atmosphere containing appropriate CO2 concentration.” left out\n(§3) Cells were lysed in SDS sample buffer (2% SDS, 10% glycerol, 60 mM Tris-HCl pH 6.8). […] Protein concentration was determined by the Lowry protein assay, extracts were supplemented with 0.5% […] and 0.02% bromophenol blue. […]"}, "recombinant PARP-1": {"biological_target": "recombinant PARP-1 (Homo sapiens, UniProt P09874)", "sequence (P09874 whole entry, species assumed)": "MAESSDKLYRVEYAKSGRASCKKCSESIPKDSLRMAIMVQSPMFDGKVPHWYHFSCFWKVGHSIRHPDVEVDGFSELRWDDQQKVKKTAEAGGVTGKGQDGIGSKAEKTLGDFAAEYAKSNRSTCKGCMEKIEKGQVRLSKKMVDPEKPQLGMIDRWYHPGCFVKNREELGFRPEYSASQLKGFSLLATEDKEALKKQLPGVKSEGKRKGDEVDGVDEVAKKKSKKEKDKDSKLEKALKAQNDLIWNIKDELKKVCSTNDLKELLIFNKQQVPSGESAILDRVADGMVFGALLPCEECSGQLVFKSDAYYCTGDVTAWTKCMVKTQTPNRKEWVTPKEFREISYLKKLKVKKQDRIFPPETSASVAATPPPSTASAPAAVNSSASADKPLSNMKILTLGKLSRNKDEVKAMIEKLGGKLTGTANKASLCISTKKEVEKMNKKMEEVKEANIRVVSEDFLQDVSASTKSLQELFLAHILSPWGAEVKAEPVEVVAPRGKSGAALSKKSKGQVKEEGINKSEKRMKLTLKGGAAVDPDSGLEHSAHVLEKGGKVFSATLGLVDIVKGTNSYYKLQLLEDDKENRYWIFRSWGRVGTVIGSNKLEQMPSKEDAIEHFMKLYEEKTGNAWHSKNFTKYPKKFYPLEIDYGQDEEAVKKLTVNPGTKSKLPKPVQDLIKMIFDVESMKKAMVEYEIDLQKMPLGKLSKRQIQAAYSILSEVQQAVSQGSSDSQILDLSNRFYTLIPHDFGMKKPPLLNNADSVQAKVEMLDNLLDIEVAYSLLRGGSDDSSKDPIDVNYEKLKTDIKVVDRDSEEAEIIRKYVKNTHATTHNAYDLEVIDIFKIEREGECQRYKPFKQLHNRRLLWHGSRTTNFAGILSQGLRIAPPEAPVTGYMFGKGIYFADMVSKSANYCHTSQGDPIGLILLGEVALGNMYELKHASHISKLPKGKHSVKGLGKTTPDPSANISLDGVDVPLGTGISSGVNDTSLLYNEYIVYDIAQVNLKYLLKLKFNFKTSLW", "settings": "recombinant PARP-1, cell-free assay; read-out: competitive inhibition Ki; cited from earlier work"}, "BRCA2 [3]": {"system": "BRCA2", "experiment": "Immunoblotting of BRCA2 in HeLa cells under mild hyperthermia", "type": "cell-based", "settings": "exposed to 41° C. in presence of 10 μM MG132 (FIG. 2C)", "method": "as §1, with “The biopsies were minced using scalpel, then incubated in Liberase Blendzyme enzyme cocktail (Roche) in DMEM for 60 min at 37° C. and plated on glass coverslips in fresh culture medium. All incubations at elevated temperature were performed in a heated waterbath or in a water-filled cuvette placed in an incubator set to required temperature, in an atmosphere containing appropriate CO2 concentration.” left out\nas §3"}, "U2OS cells": {"system": "U2OS cells", "experiment": "Clonogenic assay, U2OS cells with mild hyperthermia", "type": "cell-based, human", "settings": "41° C., 100 μM NU1025 (FIG. 3A)", "method": "(§4) Embryonic stem (ES) cells were cultured on gelatin-coated dishes in a 1:1 mixture of Dulbecco's modified Eagle's medium (DMEM) and buffalo rat liver conditioned medium, supplemented with 10% FBS (Hyclone), 0.1 mM nonessential amino acids (Biowhittaker), […] β-mercaptoethanol (Sigma) and 500 U ml-1 leukemia inhibitory factor. Other cells were cultured in following media, supplemented with 10% (v/v) FCS and streptomycin/penicillin: 1:1 mixture of DMEM and Ham's F10 (HeLa), DMEM (human melanoma [BLM], osteosarcoma [U2OS], cervix carcinoma cells), L-15 (human squamous lung carcinoma [SW-1573]), Eagle's MEM (mouse osteosarcoma [MOS], rat rhabdomyosarcoma [R1]). Cells were maintained at 37° C. in an atmosphere containing 5% (HeLa, BLM), 10% (U2OS, cervix carcinoma cells), 2% (R1) or 0% (SW-1573) CO2. […]\nas §2"}, "SW-1573 cells": {"system": "SW-1573 cells", "experiment": "Clonogenic assay, SW-1573 cells", "type": "cell-based, human", "method": "as §4, §2"}, "MOS cells": {"system": "MOS cells", "experiment": "Clonogenic assay, MOS cells", "type": "cell-based, mouse", "method": "as §4, §2"}, "PARP-2": {"biological_target": "PARP-2 (Homo sapiens, UniProt Q9UGN5)", "sequence (Q9UGN5 whole entry, species assumed)": "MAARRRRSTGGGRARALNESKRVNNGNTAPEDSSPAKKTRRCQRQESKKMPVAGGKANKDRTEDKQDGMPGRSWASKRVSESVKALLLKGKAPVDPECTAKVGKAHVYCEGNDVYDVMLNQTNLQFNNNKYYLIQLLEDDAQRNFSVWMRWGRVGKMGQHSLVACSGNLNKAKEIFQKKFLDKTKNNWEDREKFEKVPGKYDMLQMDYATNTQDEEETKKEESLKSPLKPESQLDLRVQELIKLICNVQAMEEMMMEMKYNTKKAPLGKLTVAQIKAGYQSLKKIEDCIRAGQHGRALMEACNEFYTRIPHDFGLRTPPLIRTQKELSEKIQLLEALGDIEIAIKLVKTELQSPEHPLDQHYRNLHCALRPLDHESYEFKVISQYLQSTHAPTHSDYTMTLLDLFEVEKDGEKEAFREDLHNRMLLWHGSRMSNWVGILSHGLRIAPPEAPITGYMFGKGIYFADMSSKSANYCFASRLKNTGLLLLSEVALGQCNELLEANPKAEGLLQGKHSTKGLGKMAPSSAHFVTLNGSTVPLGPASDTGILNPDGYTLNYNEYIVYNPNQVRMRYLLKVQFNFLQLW", "settings": "cited from earlier work"}, "[4]": {"settings": "PARP inhibitor potency as listed, isoform not stated"}},
  "note": "Read-outs that look alike come from different tables or passages of the source. Residues, ends and D or L forms follow the SMILES beside them. *: point of attachment. Cbz = O=C(OCc1ccccc1)*",
  "data": [
    {"smiles": "Oc1cccc2c(O)nccc12", "note": "[IQD, 1,5-dihydroxyisoquinoline]", "values": [
      {"measurement": "IC50", "setting": "PARP; [4]", "result": 390, "unit": "nM"}
    ]},
    {"smiles": "CO[C@H]1/C=C\\C=C(/C)C(=O)NC2=CC(=O)C(NCCN(C)C)=C(C[C@@H](C)C[C@H](OC)[C@H](O)[C@@H](C)/C=C(\\C)[C@@H]1OC(N)=O)C2=O", "note": "[17-DMAG, 17-dimethylaminoethylamino-17-demethoxy-geldanamycin]", "values": [
      {"measurement": "clonogenic survival", "setting": "R1 cells", "result": "dramatically reduced"},
      {"measurement": "efficiency of HR-mediated gene targeting", "setting": "[1]", "result": "further reduced"},
      {"measurement": "levels of BRCA2 protein", "setting": "BRCA2 [2]", "result": "further reduced"}
    ]},
    {"smiles": "O=C1NCCc2c(OCCCCN3CCCCC3)cccc21", "note": "[DPQ, 3,4-dihydro-5[4-(1-piperindinyl)butoxy]-1(2H)-isoquinoline]", "values": [
      {"measurement": "IC50", "setting": "PARP; [4]", "result": 40, "unit": "nM"}
    ]},
    {"smiles": "CN(C)c1ccc(O)c2c1C[C@H]1C[C@H]3[C@H](N(C)C)C(O)=C(C(N)=O)C(=O)[C@@]3(O)C(O)=C1C2=O", "note": "[minocycline]", "values": [
      {"measurement": "Ki", "setting": "recombinant PARP-1", "result": 13.8, "unit": "nM"}
    ]},
    {"smiles": "CC(C)C[C@@H](C=O)NC(=O)[C@H](CC(C)C)NC(=O)[C@H](CC(C)C)NC(=O)OCc1ccccc1", "note": "[MG132] (Cbz-Leu-Leu-Leu-aldehyde)", "values": [
      {"measurement": "BRCA2 levels on hyperthermia", "setting": "BRCA2 [3]", "result": "no decrease of BRCA2 levels"}
    ]},
    {"smiles": "O=C1N=C2SCC=C2c2ccccc21", "note": "[TIQ-A, thieno[2,3-c]isoquinolin-5-one]", "values": [
      {"measurement": "IC50", "setting": "PARP; [4]", "result": 450, "unit": "nM"}
    ]},
    {"smiles": "Cc1nc2c(O)cccc2c(=O)[nH]1", "note": "[NU1025, 8-hydroxy-2-methylquinazoline-4-one]", "values": [
      {"measurement": "clonogenic survival compared to hyperthermia alone", "setting": "U2OS cells", "result": "decrease in clonogenic survival"},
      {"measurement": "clonogenic survival compared to hyperthermia alone", "setting": "R1 cells; 100 μM NU1025 (FIG. 3B)", "result": "decrease in clonogenic survival"},
      {"measurement": "clonogenic survival", "setting": "R1 cells", "result": "dramatically reduced"},
      {"measurement": "sensitivity to inhibitor alone", "setting": "SW-1573 cells; SW-1573, NU1025 alone, data not shown", "result": "insensitive"},
      {"measurement": "survival of hyperthermia-treated cells", "setting": "SW-1573 cells; SW-1573, hyperthermia plus NU1025, data not shown", "result": "did not reduce survival"},
      {"measurement": "IC50", "setting": "PARP", "result": 400, "unit": "nM"},
      {"measurement": "sensitivity to inhibitor alone", "setting": "MOS cells; NU1025 alone, data not shown", "result": "insensitive"},
      {"measurement": "survival of hyperthermia-treated cells", "setting": "MOS cells; hyperthermia plus NU1025, data not shown", "result": "did not reduce survival"}
    ]},
    {"smiles": "Nc1ncnc2c1ncn2C1OC(C(=O)N2CCN(CC(=O)Nc3cccc4c3CNC4=O)CC2)C(O)C1O", "note": "[EB-47, 1-piperazineacetamide,4-[1-(6-amino-9H-purin-9-yl)-1-deoxy-6-D-ribofuranuron]-N-(2,3-dihydro-1H-isoindol-4-yl)-1-one]", "values": [
      {"measurement": "IC50", "setting": "PARP; [4]", "result": 45, "unit": "nM"}
    ]},
    {"smiles": "NC(=O)c1cccc2ncc(-c3ccc(Cl)cc3)nc12", "note": "[3-(4-chlorophenyl)quinoxaline-5-carboxamide]", "values": [
      {"measurement": "IC50", "setting": "PARP-2", "result": 7, "unit": "nM"}
    ]},
    {"smiles": "Cc1nc2c(c(=O)[nH]1)CSCC2", "note": "[DR2313, 2-methyl-3,5,7,8-tetrahydrothiopyrano[4,3-d]pyrimidine-4-one]", "values": [
      {"measurement": "IC50", "setting": "PARP-2", "result": 240, "unit": "nM"}
    ]},
    {"smiles": "NC(=O)c1cccc(N)c1", "note": "[3-ABA, 3-aminobenzamide]", "values": [
      {"measurement": "EC50", "setting": "PARP; PARP inhibitor potency as listed", "result": "[…]"}
    ]},
    {"smiles": "Nc1ccc2c3c(cccc13)C(=O)NC2=O", "note": "[4-ANI, 4-amino-1,8-naphthalimide]", "values": [
      {"measurement": "IC50", "setting": "PARP", "result": 180, "unit": "nM"}
    ]}
  ]
}
